In one assay the target is Genome polyprotein (dengue virus type 2, UniProt P29990). Description: Dengue-2 NS5 methyltransferase inhibitors, primary screen, biochemical, confirmation dose response (AID 588689). Type of assay: functional.
Another assay concerns Vero. Description: Vero cell cytotoxicity, cytotoxicity control for flavivirus capping enzyme inhibitors (AID 588742). It is filed as functional. To be noted: Chlorocebus sabaeus.
Another assay concerns Jurkat. Nature of the assay: SAR Analysis of small molecule inhibitors of […] specific antigen receptor-induced NF-kB activation in a Jurkat cell line using a luminescence assay - Set 3. [Related pubchem assays (depositor defined):AID435022, AID435025, AID465]. It is filed as functional, cell-based. The note with it: Homo sapiens.
In assay [1] the test system is HEK293. Description: SAR Analysis of small molecule inhibitors of B-cell specific antigen receptor-induced NF-kB activation in a HEK-293T cell line using a luminescence assay - Set 2. [Related pubchem assays (depositor defined):AID435022, AID435025, AID489021]. It is filed as functional, cell-based. The note with it: Homo sapiens.
Assay [2] deals with HEK293. Nature of the assay: cytotoxicity in HEK293T NF-kB-Luc cells, SAR follow-up, cytotoxicity control for NF-kB activator project, cell-based, resazurin fluorescence (AID 493251). It is filed as functional. The note with it: Homo sapiens. For orientation: Resazurin is reduced to fluorescent resorufin, in cell work by metabolically active cells.
The target in assay [3] is T1, Beta-galactosidase (Escherichia coli, UniProt Q8VNN2). Nature of the assay: PubChem AID 485352. Type of assay: functional.
Assay [4] deals with Type-1 angiotensin II receptor (Homo sapiens, UniProt P30556). Description: AT1 receptor antagonists, dose response, selectivity assay for APJ receptor antagonist project, cell-based, uHTS hits (AID 463214).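 Further: antagonist potency against angiotensin II stimulated AT1 response.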 Type of assay: functional.
Assay [5] has as its system Escherichia coli. Description: microbe, parasite or virus in culture.
The test system of assay [6] is Escherichia coli. Description: microbe, parasite or virus in culture. This is another data set of the same source.
Assay [7] concerns the target ATP-dependent molecular chaperone HSP82 (Candida albicans (strain WO-1) (Yeast), UniProt C4YTQ8). Nature of the assay: loss of DOC-induced GRE-beta-galactosidase reporter signal, dose response, Hsp90 inhibitor project, S. cerevisiae, luminescence (AID 2400).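 Further: beta-galactosidase luminescence from glucocorticoid response element reporter as proxy for Hsp90 function; inhibitor potency where signal loss means Hsp90 inhibition.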 It is filed as functional, cell-based.
Assay [8] in a line: C. albicans growth with fluconazole, confirmation, fluorescence, retest (AID 2467). It is filed as functional, cell-based.
Assay [9] concerns the target Serine/threonine-protein phosphatase (Candida dubliniensis (strain CD36 / CBS 7987 / NCPF 3949 / NRRLY-17841) (Yeast), UniProt B9W6M3). Nature of the assay: calcineurin pathway inhibitors in yeast reporter, dose response, S. cerevisiae, CDRE-lacZ, luminescence, secondary (AID 2388).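 Further: yeast reporter cells carrying a calcineurin-responsive lacZ construct stimulated with calcium chloride; luminescent beta-galactosidase reporter signal in whole cells rather than isolated phosphatase activity; potency for inhibition where a drop in reporter signal means calcineurin blockade.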 It is filed as functional, cell-based.
The nature of assay [10]: NIH-3T3 fibroblast cytotoxicity, dose response, cytotoxicity control, cell-based, fluorescence, Alamar Blue, secondary assay (AID 2327).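 Further: NIH-3T3 mouse fibroblasts cultured with fluconazole at 8 µg/mL.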 It is filed as functional.
Assay [11] in a line: Shn3 3'UTR reporter inhibitors, dose response, cell-based, Clone20 osteoblasts, firefly luciferase, cherry-picked (AID 624132).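 Further: firefly luciferase luminescence from reporter carrying the Shn3 3'UTR in osteoblasts.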 Type of assay: functional.
Assay [12] is described as follows: Luminescence Cell-Based Dose Response HTS to Identify Inhibitors of 5'UTR Stem-Loop Driven Prion Protein mRNA Translation in H4 Neuroglioblastoma Cells. [Related pubchem assays: 1827 (Project Summary), 1813 (Primary HTS)]. It is filed as functional.
Assay [13] can be described thus: inhibitors of firefly luciferase expression or activity, dose response, H4 neuroglioma cells, luminescence (AID 1990). It is filed as functional, cell-based.
The nature of assay [14]: inhibitors of SNCA 5'UTR-driven reporter translation, confirmation, H4 neuroglioma cells, luminescence (AID 1988). It is filed as functional, cell-based.
The subject of another assay is Streptococcus. Description: Group A Streptococcus viability loss, dose response, counter-screen for streptokinase expression inhibitor project, luminescence, BacTiterGlo (AID 1915).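 Further: potency for reduction of bacterial viability or growth.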 It is filed as functional, organism-based. (The purpose of a counterscreen is to sort out artefacts and off-target activity.)
Assay [15] is described as follows: cytotoxicity in HEK-293T cells, dose response, cytotoxicity control for TCR NF-kB inhibitor project, luminescence, T-cell screen hits (AID 489026).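 Further: cells exposed to compound about 14 hours before the viability readout.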 It is filed as functional, cell-based.
The test system of another assay is CHO. Nature of the assay: cytotoxicity in TLR9-MyD88 CHO cells, dose response, cytotoxicity control for TLR9-MyD88 binding inhibitor project, cell-based, luminescence (AID 588339).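 Further: CHO cells stably coexpressing TLR9 and MyD88 fusions from primary screen; compound exposure lasted 48 hours before viability readout.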 It is filed as functional, hamster. To be noted: Cricetulus griseus.
The nature of assay [16]: growth suppression of PTEN-null colon cells, dose response, cell-based, HCT116 PTEN knockout (AID 1047).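 Further: HCT116 colon tumor cells with PTEN knocked out; cells exposed to compound for 60 hours before readout; potency for loss of cell viability measured by luminescence.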 Type of assay: functional.
Assay [17] is described as follows: HepG2 cell cytotoxicity, dose response, cytotoxicity control for Shn3 inhibitor project, CellTiter-Glo, cherry-picked (AID 624134). It is filed as functional, cell-based. In general terms: Cellular ATP, detected with luciferase, serves as a proxy for viable cell number.
A further assay addresses Beta Lactamase (Pseudomonas aeruginosa, UniProt Q932Y6). Description: beta-lactamase reporter inhibitor potency, dose response, artefact control for TLR9-MyD88 binding inhibitor project, BLA reporter cells, FRET fluorescence (AID 588341).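 Further: cell based assay in CHO-K1 cells stably expressing beta-lactamase.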 It is filed as cell-based.
Assay [18] deals with T1, Beta-galactosidase. Type of assay: functional.
For assay [19], the target named is T2, Kappa-type opioid receptor (Homo sapiens, UniProt P41145). It is filed as functional.
For assay [20], the target named is T3, Delta-type opioid receptor (Homo sapiens, UniProt P41143). Nature of the assay: HTS Image-Based Screen for Antagonists of the DOR Receptor. [Related pubchem assays (depositor defined):AID1777, AID1785, AID1786, AID2133]. It is filed as functional.
Assay [21] is described as follows: growth suppression of beta-catenin-knockout colon cells, dose response, cell-based, HCT116, human colon tumor (AID 1045).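 Further: HCT116 colon tumor cells with beta catenin knocked out; cells exposed to compound for 60 hours.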 Type of assay: functional.
Assay [22] deals with T2, Kappa-type opioid receptor. Type of assay: functional. The source holds these as a separate data set.
The target in assay [23] is T3, Delta-type opioid receptor. Description: HTS Image-Based Screen for Agonists of the DOR Receptor. [Related pubchem assays (depositor defined):AID1777, AID1786, AID2133]. Type of assay: functional.
A further assay concerns the target T4, Streptokinase A (Streptococcus pyogenes serotype M1, UniProt P10520).
T4 sequence (P10520 whole entry): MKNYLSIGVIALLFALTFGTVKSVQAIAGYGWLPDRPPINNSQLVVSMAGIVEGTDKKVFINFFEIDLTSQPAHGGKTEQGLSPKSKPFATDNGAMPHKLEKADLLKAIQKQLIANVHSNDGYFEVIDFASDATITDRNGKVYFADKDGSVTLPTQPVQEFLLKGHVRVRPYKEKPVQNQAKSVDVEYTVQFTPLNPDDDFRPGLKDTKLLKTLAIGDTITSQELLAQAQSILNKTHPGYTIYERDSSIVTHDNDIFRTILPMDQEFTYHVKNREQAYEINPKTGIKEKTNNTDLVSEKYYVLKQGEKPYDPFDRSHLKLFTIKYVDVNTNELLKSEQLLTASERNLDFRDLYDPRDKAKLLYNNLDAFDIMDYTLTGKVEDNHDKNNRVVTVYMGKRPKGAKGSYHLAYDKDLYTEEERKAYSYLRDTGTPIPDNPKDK
Nature of the assay: S. pyogenes streptokinase expression inhibitors, potency, dose response, plasminogen activation absorbance, OD405 (AID 1914).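 Further: secreted streptokinase activity via plasminogen activation per viability signal from cell pellet.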 Type of assay: functional, Streptococcus pyogenes M1 GAS.

The target of the next assay is Mu-type opioid receptor (Homo sapiens, UniProt P35372). Description: HTS Image-Based Screen for Agonists of the MOR Receptor. [Related pubchem assays (depositor defined):AID1777, AID1785, AID1786, AID2133]. It is filed as functional.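 Further: imaging of beta-arrestin GFP recruitment into spots after receptor activation.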
A short description of assay [24]: control 3'UTR Renilla luciferase suppression, dose response, counter-screen for Shn3 inhibitor project, cell-based, Clone20-Shn3RL, cherry-picked (AID 624133). Type of assay: functional.
The subject of assay [25] is Streptococcus sp. 'group A'. Nature of the assay: growth inhibition of control SK(-) GAS strain, dose response, counter-screen for streptokinase expression inhibitor project, luminescence, kanamycin, BacTiterGlo, confirmation (AID 1900). Type of assay: functional, organism-based.
A further assay concerns the target T5, fMet-Leu-Phe receptor (Homo sapiens, UniProt P21462).
T5 sequence (P21462 whole entry): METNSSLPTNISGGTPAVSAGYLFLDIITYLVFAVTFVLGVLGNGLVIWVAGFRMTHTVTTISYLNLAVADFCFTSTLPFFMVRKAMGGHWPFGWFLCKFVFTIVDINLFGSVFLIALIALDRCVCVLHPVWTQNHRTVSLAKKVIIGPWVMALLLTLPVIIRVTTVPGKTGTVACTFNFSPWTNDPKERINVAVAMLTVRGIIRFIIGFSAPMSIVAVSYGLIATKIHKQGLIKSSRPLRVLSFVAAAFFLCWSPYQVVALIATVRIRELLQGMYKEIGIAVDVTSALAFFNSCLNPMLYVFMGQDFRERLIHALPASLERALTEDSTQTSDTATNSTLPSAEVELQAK
Description: FPR ligands, dose response (AID 519). It is filed as functional.

A further assay deals with Phospholipase D2 (Homo sapiens, UniProt O14939). Nature of the assay: PLD2 inhibitor potency in cells, dose response (AID 602147).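 Further: cellular assay in HEK293 cells overexpressing GFP-tagged PLD2.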 Type of assay: functional.
For another assay, the target named is Phospholipase D1 (Homo sapiens, UniProt Q13393). Nature of the assay: PLD1 inhibitor potency in cells, dose response (AID 602151).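 Further: cellular PLD1 assay in Calu-1 cells stimulated with PMA.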 It is filed as functional.

Active and inactive are the calls of the source.

T2 sequence (P41145 whole entry): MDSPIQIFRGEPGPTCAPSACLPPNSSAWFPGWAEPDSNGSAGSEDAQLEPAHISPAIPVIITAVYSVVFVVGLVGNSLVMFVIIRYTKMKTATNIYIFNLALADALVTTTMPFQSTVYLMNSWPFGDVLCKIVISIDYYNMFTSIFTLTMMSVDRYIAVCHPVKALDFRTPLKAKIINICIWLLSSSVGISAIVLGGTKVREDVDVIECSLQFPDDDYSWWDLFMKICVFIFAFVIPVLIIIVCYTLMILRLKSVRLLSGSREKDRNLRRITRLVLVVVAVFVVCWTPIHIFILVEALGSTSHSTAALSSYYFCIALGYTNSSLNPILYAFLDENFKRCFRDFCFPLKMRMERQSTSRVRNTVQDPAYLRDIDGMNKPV
T1 sequence (Q8VNN2 whole entry): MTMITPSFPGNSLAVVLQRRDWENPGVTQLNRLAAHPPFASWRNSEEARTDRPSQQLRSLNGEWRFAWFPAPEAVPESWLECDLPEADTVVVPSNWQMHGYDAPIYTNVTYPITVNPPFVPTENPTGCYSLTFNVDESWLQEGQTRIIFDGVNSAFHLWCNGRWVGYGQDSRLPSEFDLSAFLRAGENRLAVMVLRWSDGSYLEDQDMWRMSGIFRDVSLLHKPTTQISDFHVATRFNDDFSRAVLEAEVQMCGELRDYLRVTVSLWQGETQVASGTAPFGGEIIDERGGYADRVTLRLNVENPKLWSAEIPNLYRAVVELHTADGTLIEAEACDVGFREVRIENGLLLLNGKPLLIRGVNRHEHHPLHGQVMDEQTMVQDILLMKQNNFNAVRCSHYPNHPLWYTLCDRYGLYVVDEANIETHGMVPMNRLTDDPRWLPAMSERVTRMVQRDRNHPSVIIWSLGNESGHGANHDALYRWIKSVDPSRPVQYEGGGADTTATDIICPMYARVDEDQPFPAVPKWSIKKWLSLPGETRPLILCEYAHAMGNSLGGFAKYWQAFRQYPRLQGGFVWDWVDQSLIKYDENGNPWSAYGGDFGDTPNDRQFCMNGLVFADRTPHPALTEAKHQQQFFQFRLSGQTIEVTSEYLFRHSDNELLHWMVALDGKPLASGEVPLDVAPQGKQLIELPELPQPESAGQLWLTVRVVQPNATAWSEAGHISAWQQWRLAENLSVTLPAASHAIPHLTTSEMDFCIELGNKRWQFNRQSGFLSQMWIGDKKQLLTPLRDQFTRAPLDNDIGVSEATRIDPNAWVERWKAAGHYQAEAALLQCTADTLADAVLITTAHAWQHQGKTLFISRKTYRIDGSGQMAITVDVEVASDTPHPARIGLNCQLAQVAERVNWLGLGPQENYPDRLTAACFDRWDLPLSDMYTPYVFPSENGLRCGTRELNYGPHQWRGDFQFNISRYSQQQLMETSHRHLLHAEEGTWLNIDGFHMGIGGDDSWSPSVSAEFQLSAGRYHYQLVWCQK
T3 sequence (P41143 whole entry): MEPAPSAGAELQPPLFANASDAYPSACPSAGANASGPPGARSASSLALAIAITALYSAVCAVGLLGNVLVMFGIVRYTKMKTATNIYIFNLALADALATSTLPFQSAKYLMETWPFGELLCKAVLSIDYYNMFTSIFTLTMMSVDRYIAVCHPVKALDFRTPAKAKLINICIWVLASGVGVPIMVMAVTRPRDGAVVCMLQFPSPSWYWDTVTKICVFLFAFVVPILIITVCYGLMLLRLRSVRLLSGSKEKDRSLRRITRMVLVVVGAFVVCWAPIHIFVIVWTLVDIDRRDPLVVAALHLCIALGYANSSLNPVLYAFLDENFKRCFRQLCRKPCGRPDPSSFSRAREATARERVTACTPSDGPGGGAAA
Sequence of Type-1 angiotensin II receptor (P30556 whole entry): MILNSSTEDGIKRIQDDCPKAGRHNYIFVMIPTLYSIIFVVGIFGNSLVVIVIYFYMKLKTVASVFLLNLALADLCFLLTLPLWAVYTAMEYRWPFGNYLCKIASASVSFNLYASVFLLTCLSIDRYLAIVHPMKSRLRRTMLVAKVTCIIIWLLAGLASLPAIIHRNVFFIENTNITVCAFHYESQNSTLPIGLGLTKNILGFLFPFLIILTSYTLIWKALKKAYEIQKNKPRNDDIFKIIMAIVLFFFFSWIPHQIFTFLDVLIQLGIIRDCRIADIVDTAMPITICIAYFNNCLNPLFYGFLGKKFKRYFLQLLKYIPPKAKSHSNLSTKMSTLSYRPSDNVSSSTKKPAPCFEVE
Sequence of Beta Lactamase (Q932Y6 whole entry): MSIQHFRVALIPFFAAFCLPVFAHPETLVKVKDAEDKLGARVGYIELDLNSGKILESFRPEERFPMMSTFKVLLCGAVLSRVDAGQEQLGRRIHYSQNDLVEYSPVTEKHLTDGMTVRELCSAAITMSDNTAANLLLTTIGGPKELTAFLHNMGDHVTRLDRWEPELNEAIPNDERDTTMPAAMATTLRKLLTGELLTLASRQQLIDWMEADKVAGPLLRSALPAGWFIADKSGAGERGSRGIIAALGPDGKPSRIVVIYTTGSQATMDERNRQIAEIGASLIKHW
Sequence of Genome polyprotein (P29990 2492-3391 limits assumed): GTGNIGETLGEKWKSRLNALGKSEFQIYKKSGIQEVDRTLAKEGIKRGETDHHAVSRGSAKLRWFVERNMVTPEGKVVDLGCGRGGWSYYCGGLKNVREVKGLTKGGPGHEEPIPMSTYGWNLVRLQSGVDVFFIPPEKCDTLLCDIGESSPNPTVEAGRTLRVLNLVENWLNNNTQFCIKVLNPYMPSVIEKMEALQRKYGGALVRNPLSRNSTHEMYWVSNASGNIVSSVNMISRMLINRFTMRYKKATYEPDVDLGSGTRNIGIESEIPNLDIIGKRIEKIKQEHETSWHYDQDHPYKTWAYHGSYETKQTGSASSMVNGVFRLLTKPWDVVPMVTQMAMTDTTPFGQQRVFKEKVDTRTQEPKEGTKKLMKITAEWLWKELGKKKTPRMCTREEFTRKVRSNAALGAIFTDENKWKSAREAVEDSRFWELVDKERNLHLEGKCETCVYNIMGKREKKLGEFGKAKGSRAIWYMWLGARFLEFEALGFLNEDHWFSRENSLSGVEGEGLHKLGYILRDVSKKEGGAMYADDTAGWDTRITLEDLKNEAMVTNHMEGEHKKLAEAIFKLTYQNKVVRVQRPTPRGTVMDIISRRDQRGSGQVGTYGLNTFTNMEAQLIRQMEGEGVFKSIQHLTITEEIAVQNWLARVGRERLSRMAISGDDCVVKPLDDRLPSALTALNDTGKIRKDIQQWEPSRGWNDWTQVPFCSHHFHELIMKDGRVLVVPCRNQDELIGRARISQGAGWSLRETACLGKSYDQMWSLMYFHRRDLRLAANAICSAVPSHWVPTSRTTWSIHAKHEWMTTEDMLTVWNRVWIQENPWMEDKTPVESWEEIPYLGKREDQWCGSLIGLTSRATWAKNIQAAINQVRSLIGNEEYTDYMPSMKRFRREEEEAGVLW
Sequence of Phospholipase D2 (O14939 whole entry): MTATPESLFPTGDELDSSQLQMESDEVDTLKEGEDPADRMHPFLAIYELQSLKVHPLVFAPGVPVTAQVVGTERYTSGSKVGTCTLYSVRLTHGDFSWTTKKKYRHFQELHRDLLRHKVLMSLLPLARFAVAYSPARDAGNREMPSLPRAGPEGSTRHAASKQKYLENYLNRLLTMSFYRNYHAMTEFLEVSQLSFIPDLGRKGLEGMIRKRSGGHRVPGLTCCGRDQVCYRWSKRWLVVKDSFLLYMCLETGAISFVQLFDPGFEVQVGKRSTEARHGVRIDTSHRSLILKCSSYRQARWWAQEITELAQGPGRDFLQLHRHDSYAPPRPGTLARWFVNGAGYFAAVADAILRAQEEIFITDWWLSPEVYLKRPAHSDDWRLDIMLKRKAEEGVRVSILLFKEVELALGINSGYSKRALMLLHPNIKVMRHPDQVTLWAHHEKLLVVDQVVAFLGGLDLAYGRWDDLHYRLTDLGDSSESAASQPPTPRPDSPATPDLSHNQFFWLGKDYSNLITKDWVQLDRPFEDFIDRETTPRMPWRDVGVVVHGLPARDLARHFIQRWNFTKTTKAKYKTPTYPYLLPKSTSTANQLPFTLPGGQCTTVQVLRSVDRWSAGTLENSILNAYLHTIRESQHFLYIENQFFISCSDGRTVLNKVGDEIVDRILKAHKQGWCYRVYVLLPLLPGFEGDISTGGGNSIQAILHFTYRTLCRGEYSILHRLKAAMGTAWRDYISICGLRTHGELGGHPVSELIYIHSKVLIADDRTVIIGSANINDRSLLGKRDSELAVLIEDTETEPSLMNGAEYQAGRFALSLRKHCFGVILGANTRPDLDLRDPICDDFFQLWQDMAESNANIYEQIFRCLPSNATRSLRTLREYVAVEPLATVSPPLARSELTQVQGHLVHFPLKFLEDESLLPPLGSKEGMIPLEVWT
Sequence of Mu-type opioid receptor (P35372 whole entry): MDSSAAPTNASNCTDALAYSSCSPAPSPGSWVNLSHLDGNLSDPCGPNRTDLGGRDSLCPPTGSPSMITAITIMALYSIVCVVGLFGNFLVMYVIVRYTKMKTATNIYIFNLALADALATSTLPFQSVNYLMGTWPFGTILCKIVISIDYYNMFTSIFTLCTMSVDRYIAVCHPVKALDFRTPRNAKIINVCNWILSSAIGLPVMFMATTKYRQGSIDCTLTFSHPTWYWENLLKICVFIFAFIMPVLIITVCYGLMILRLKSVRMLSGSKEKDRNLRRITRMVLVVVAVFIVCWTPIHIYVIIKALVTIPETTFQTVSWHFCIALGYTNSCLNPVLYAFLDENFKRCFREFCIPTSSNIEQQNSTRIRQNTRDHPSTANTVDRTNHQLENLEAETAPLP

Regarding `CCOC(=O)c1c(NC(=O)/C=C/C(=O)O)sc(C)c1-c1ccc(Cl)cc1`, on Genome polyprotein, the IC50 was 43 µM (active). The CC50 in the assay with Vero is > 40 µM (active).

For `CCOc1ccc(-c2nc(CSCC(=O)NCc3cccnc3)c(C)o2)cc1`, the IC50 in the assay on Jurkat was 72.6 µM (inactive); in the assay with HEK293 [1], 24.2 µM (inactive); in the assay with HEK293 [2], 65 µM (inactive).

In the case of `Cc1ccc(C(=O)CNc2ccccc2)cc1`, the EC50 on Beta-galactosidase [3] was > 40 µM (inactive). The IC50 in [4] is 9.14 µM (active).

With `CCC[C@@H]1C[C@@]1(CCC)[C@@H](NC(=O)c1ccccc1)c1ccc(C(=O)OC)cc1`, the AC50 in the assay with Escherichia coli [5] was > 380 µM (inactive); in the assay on Escherichia coli [6] it was 21.2 µM (active).

In the case of `CCOc1ccc(NC(=O)c2cn(-c3ccc(OCC)cc3)c(=O)c3cc(OC)c(OC)cc23)cc1`, the EC50 in assay [7] is > 160 µM (inactive); in [8], 0.789 µM (active); in assay [9], > 180 µM (inactive); in assay [10], > 160 µM (inconclusive).

Regarding `O=S(=O)(Nc1cccc2ncccc12)c1cccs1`, the AC50 is 4.3 µM (active) in [11], 6.33 µM (active) in assay [17] and 13.2 µM (active) in assay [24]. Further, the EC50 was 7.05 µM (active) in [12]; 15.3 µM (active) in assay [13]; 11.8 µM (active) in assay [14]; 7.13 µM (active) in the assay on Streptococcus; 1.97 µM (active) in [16]; > 31.5 µM (inactive) on Beta-galactosidase [18]. Moreover, the EC50 in assay [21] was 1.62 µM (active); in [23] it was > 32 µM (inactive); at Streptokinase A, > 150 µM (not active); on Mu-type opioid receptor, > 32 µM (inactive); in assay [25], 3.58 µM (active). Further, the IC50 in assay [15] was > 80 µM (inactive); with CHO, 4.34 µM (active); on Beta Lactamase it was > 49.7 µM (inactive); in [19], 2.64 µM (active); in assay [20], > 32 µM (inactive); in assay [22], over 32 µM. For the same molecule, the Ki on fMet-Leu-Phe receptor is > 66.7 µM (inactive).

With `CC(C)[C@@H](CN1CCC2(CC1)C(=O)NCN2c1ccccc1)NC(=O)c1cnc2ccccc2c1`, the IC50 at Phospholipase D2 is 0.25 µM (active); at Phospholipase D1, 0.09 µM (active).

The IC50 is the point on the concentration scale where inhibition reaches its midpoint. As usually defined, the CC50 is the concentration that lowers cell viability or growth by half. A word on the EC50: it is the concentration at which the effect is half-maximal. In general, AC50 refers to the midpoint of the concentration-response curve, whichever way the signal moves. The term Ki denotes a measure of affinity in units of concentration, obtained from inhibition or displacement.

The record behind these values is ChEMBL document CHEMBL1201862, “PubChem BioAssay data set” (2004).
